5 compounds from US10221163B2 (priority 2015, dated 2019) can be followed below.

Holding throughout (assay): microbe, parasite or virus in culture
For test [1], the system named is Pseudomonas aeruginosa MB 5919 (OprD+, efflux+). Format: cell-based.
For test [2], the system named is Pseudomonas aeruginosa MB 5890 (OprD+, efflux−). The format is cell-based.
The subject of test [3] is MB 9798: MB 5919 Trans IMP1 plasmid (OprD+, efflux+). The format is cell-based, Pseudomonas aeruginosa.
For test [4], the system named is MB 9799: MB 5890 Trans IMP1 plasmid (OprD+, efflux−). Format: cell-based, Pseudomonas aeruginosa.
Test [5] deals with MB 9861: MB 5919 Trans pFlp-Vim1 plasmid (OprD+, efflux+). Format: cell-based, Pseudomonas aeruginosa.
The subject of test [6] is MB9862: MB 5890 Trans pFlp-Vim1 (OprD+, efflux−). The format is cell-based, Pseudomonas aeruginosa.
The test system of test [7] is MB 5919 Trans pFlp-Vim2 plasmid (OprD+, efflux+). Format: cell-based, Pseudomonas aeruginosa.
Test [8] has as its system MB 5890 Trans pFlp-Vim2 plasmid (OprD+, efflux−). Format: cell-based, Pseudomonas aeruginosa.
The mark [9] stands for this setting: MB 9798 = MB 5919 Trans IMP1 plasmid, OprD+, efflux+.
Setting [10] is: MB 9799 = MB 5890 Trans IMP1 plasmid, OprD+, efflux−.
Setting [11] is: MB 9861 = MB 5919 Trans pFlp-Vim1 plasmid, OprD+, efflux+.
The mark [12] stands for this setting: MB9862 = MB 5890 Trans pFlp-Vim1, OprD+, efflux−.
[13] abbreviates: MB 5919 Trans pFlp-Vim2 plasmid, OprD+, efflux+.
The mark [14] stands for this setting: MB 5890 Trans pFlp-Vim2 plasmid, OprD+, efflux−.

Each structure is given as a SMILES string. ≈ marks a conversion by molar mass, not a printed value.

`CC(C)(O/N=C(\C(=O)N[C@@H]1C(=O)N2C(C(=O)[O-])=C(C[n+]3ccccc3)CS[C@H]12)c1csc(N)n1)C(=O)O` [CAZ, ceftazidime]: the MIC in test [1] (MB 5919, OprD+, efflux+) is 1 µg/mL (≈ 1.83 µM); in test [2] (MB 5890, OprD+, efflux−), 0.5 µg/mL (≈ 0.915 µM); in test [3] (setting [9]), 256 µg/mL (≈ 468 µM); in test [4] (setting [10]), 256 µg/mL (≈ 468 µM); in test [5] (setting [11]) it was >256 µg/mL; in test [6] (setting [12]) it was >256 µg/mL. Further, the MIC was found to be 128 µg/mL (≈ 234 µM) in test [7] (setting [13]) and 64 µg/mL (≈ 117 µM) in test [8] (setting [14]).

`O=C(N[C@H](CO)[C@H](O)c1ccc([N+](=O)[O-])cc1)C(Cl)Cl` [Chloroamphenicol, chloramphenicol]: the MIC is > 64 µg/mL in test [1] (Pseudomonas aeruginosa); 1 µg/mL (≈ 3.09 µM) in test [2] (Pseudomonas aeruginosa); > 64 µg/mL in test [3] (Pseudomonas aeruginosa); 1 µg/mL (≈ 3.09 µM) in test [4] (Pseudomonas aeruginosa); > 64 µg/mL in test [5] (Pseudomonas aeruginosa); 2 µg/mL (≈ 6.19 µM) in test [6] (Pseudomonas aeruginosa). The MIC was > 64 µg/mL in test [7] (Pseudomonas aeruginosa) and 1 µg/mL (≈ 3.09 µM) in test [8] (Pseudomonas aeruginosa).

As for `C[C@@H](O)[C@H]1C(=O)N2C(C(=O)O)=C(SCCN=CN)C[C@H]12` [Imipenem, imipenem], the MIC in test [1] (MB 5919, OprD+, efflux+) is 4 µg/mL (≈ 13.4 µM); in test [2] (MB 5890, OprD+, efflux−), 2 µg/mL (≈ 6.68 µM); in test [3] (setting [9]) it was 64 µg/mL (≈ 214 µM); in test [4] (setting [10]), 32 µg/mL (≈ 107 µM); in test [5] (setting [11]), >64 µg/mL; in test [6] (setting [12]), 64 µg/mL (≈ 214 µM). In addition, the MIC in test [7] (setting [13]) is >64 µg/mL; in test [8] (setting [14]), 32 µg/mL (≈ 107 µM).

With `C[C@@H](O)[C@H]1C(=O)N2C(C(=O)O)=C(S[C@@H]3CN[C@H](C(=O)N(C)C)C3)[C@H](C)[C@H]12` [Meropenem, meropenem], the MIC in test [1] (MB 5919, OprD+, efflux+) was 2 µg/mL (≈ 5.22 µM); in test [2] (MB 5890, OprD+, efflux−) it was 0.5 µg/mL (≈ 1.3 µM); in test [3] (setting [9]), >64 µg/mL; in test [4] (setting [10]), 64 µg/mL (≈ 167 µM); in test [5] (setting [11]) it was >64 µg/mL; in test [6] (setting [12]), 64 µg/mL (≈ 167 µM). For the same compound, the figures for the MIC in test [7] (setting [13]) and in test [8] (setting [14]) were >64 µg/mL and 32 µg/mL (≈ 83.4 µM), respectively.

On to `CCN1CCN(C(=O)N[C@@H](C(=O)N[C@@H]2C(=O)N3[C@@H]2SC(C)(C)[C@@H]3C(=O)O)c2ccccc2)C(=O)C1=O` [Piperalln, piperacillin], for which the MIC in test [1] (MB 5919, OprD+, efflux+) is 2 µg/mL (≈ 3.86 µM); in test [2] (MB 5890, OprD+, efflux−), 1 µg/mL (≈ 1.93 µM); in test [3] (setting [9]), 4 µg/mL (≈ 7.73 µM); in test [4] (setting [10]), 4 µg/mL (≈ 7.73 µM); in test [5] (setting [11]), >256 µg/mL; in test [6] (setting [12]), 128 µg/mL (≈ 247 µM). For the same compound, the MIC in test [7] (setting [13]) is >256 µg/mL; in test [8] (setting [14]), 128 µg/mL (≈ 247 µM).
